Experimental findings from patent publication US20240174634A1, “Aldehyde Dehydrogenase Inhibitors and Their Therapeutic Use” (priority 2020, published 2024) are described below.

For assay [1], the target named is T1, ALDH1A3 (Homo sapiens, UniProt P47895).
T1 sequence (P47895 1-512): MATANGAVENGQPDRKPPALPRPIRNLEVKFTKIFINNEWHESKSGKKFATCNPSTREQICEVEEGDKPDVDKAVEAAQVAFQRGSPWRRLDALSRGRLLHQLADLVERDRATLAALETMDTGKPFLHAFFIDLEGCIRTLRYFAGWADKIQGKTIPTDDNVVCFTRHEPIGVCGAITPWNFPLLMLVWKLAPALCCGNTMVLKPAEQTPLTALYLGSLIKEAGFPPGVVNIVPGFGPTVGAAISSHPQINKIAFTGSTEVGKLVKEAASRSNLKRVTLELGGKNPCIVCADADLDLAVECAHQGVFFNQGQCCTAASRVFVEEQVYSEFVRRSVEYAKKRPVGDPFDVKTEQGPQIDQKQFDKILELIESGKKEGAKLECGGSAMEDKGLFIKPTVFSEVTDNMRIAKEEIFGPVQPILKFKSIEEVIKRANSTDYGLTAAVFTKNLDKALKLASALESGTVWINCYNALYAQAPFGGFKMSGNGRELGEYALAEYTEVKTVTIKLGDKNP
The assay is described as follows: ALDH1A3 cellular assay (ALDEFLUOR) in WM266.4 melanoma cells. The assay is classed as cell-based. Particulars: WM266.4 cells; 60 min incubation; percentage of ALDH-positive cells. From the text:
Materials: WM266.4 cells were procured from ATCC. (WM266-4 is a metastatic human melanoma cell line.) The ALDEFLUOR™ Assay kit (cat. no. 01700) and Aldefluor buffer (cat. no. 01702) were procured from StemCell Technologies. Dulbecco's Modified Eagle Medium (DMEM), FluoroBrite DMEM, Glutamax and Hoechst 33342 were purchased from ThermoFisher. Verapamil was obtained from Fluorochem. FBS was obtained from Sigma. Echo Qualified 384-well low-dead-volume microplate and Echo Qualified 384-well polypropylene microplate were purchased from Labcyte, and the Microclear black sterile polystyrene microplate from Greiner Bio-One.
Method: Intracellular inhibition of ALDH1A3 was assessed using the ALDEFLUOR™ Assay kit. The activated ALDEFLUOR™ reagent, BODIPY-aminoacetaldehyde (BAAA), is a fluorescent non-toxic substrate for ALDH enzymes, which freely diffuses into intact and viable cells. In the presence of ALDH enzyme activity, BAAA is converted into BODIPY-aminoacetate (BAA), which is retained inside the cells. The amount of fluorescent reaction product is proportional to the ALDH activity in the cells and is measured using an imaging cytometer. Active efflux of the reaction product is inhibited by an efflux inhibitor (Verapamil) in the ALDEFLUOR™ Assay Buffer.
A frozen vial of cells was recovered into a T225 flask containing DMEM, high glucose, 10% FBS, 1% glutamax, 1% HEPES. The following day, media was changed and cells were ready for assay from 72 hours after recovery. Cells were transferred into FluoroBrite DMEM (plus 10% FBS, 1% glutamax and 1% HEPES) and diluted to 2.5×10^5 cells/mL. 30 μL of cells were added to each well to give 7500 cells/well and then incubated overnight at 37° C., 5% CO2. After overnight incubation, the media was aspirated and replaced by 20 μL substrate/Hoechst buffer solution. Each plate requires 9 mL of solution comprising, 9 mL ALDEFLUOR assay buffer, 18 μL BAAA substrate (final concentration 500 nM), 4.5 μL Hoechst 33342 (final concentration 5 μg/mL) and 4.5 μL Verapamil (final concentration 50 μM). Compounds were prepared for dosing using the Echo acoustic dispenser by aliquoting into a source plate and dosed directly onto the cell assay plate to give a 10 point dose response per compound ranging from 10 μM to 0.0005 μM final concentration in 3-fold dilution steps. Plates were then incubated for 60 minutes at 37° C., 5% CO2. The buffer was then aspirated and cells washed twice in ice-cold PBS. Plates were kept on ice and 30 μL of cold Aldefluor buffer with 50 μM verapamil dispensed per well. The plates were then imaged using the CellInsight fluorescent microscope. Hoechst fluorescence in the 405 nm channel indicated the nuclear area and this was used to define nuclei and then the surrounding cellular area. Fluorescence in the 488 nm channel of the defined cellular area indicates ALDH1A3 activity. The percentage of cells positive for ALDH activity was plotted versus compound concentration to generate EC50 values using curve fitting parameters defined in Dotmatics software.

Assay [2] has as its target T1, ALDH1A3. The assay is described as follows: Primary biochemical assay, NAD(P)H-Glo Detection System. To be noted: 30 min pre-incubation, propionaldehyde and NAD at Km. Details: His-tag; made in house; host or cells: E. coli Rosetta (DE3). From the text: Cloning: Open reading frames corresponding to the protein coding sequences of full length human ALDH1A1 (Uniprot ID P00352), ALDH1A2 (094788) and ALDH1A3 (P47895) were polymerase chain reaction (PCR) amplified from human cDNA and inserted into the multi-cloning sites of the commercially available (Novagen) E. coli expression vectors pET47b (ALDH1A1, EcoRI restriction site; ALDH1A2, BamHI and EcoRI sites) or pET28a (ALDH1A3, NdeI and BamHI sites), using standard molecular genetic techniques. Recombinant DNA products were sequence verified prior to use in expression studies.
Expression: Expression constructs were transformed into the E. coli strain Rosetta (DE3) (Merck) and individual colonies used to inoculate 10 mL lysogen broth (LB) medium supplemented with kanamycin and chloramphenicol at 50 μg/mL and 34 μg/mL, respectively. Cultures were grown to saturation overnight at 37° C., prior to being used to sub-inoculate fresh 1 L LB medium cultures (plus antibiotics, as before). 1 L cultures were grown at 37° C., 200 rpm, throughout the day until the optical density at 600 nm (OD600) reached ˜0.8, at which point growth temperature was reduced to 18° C. and 1 mM isopropyl β-d-1-thiogalacto pyranoside (IPTG) added to induce protein expression.
Cultures were left overnight (at least 16 h) under these conditions and the following day harvested by centrifugation (4000 G, 10 minutes). Culture supernatant was discarded and cell pellets stored at −80° C. until further processing.
Purification: Cell pellets were thawed on ice, re-suspended in Ni Affinity Buffer A (20 mM HEPES pH 7.5, 300 mM NaCl, 20 mM imidazole, 1 mM tris(2-carboxyethyl)phosphine (TCEP)) with protease inhibitors (cOmplete Ultra protease inhibitor, Roche), and lysed by sonication. Lysates were clarified by centrifugation at 18,000 G, 4° C., for 40 minutes, and loaded directly onto a pre-equilibrated (Buffer A) 5 mL HisTrap Fast Flow column (GE Healthcare) by way of an AKTA Fast Protein Liquid Chromatography (FPLC) system. The column was sequentially treated with 6 column volumes (CV) 100% Buffer A, 8 CV of 90% Buffer A:10% Buffer B (20 mM 4-(2-hydroxyethyl)-1-piperazineethanesulfonic acid (HEPES) pH 7.5, 300 mM NaCl, 500 mM imidazole, 1 mM TCEP) and finally a linear gradient from 10-70% Buffer B over 8 CV to elute recombinant His-tagged protein. Relevant fractions (as measured by 280 nm absorbance) collected during elution were pooled and subjected to further purification by size exclusion chromatography (Superdex 200 26/600, GE Healthcare, running buffer 20 mM 2-(carbamoylmethylamino)ethanesulfonic acid (ACES) pH 7.5, 1 mM TCEP). Relevant fractions from this step were pooled, aliquoted, and stored at −80° C. until required for compound profiling assays.
Materials: ALDH2 was purchased from Abnova. Tris(hydroxymethyl)aminomethane (Tris) was purchased from MP Biomedicals. TCEP, ethylenediaminetetraacetic acid (EDTA), propionaldehyde, DMSO and Tween-20 were purchased from Sigma. Nicotinamide adenine dinucleotide (NAD) was obtained from Abcam. The NAD(P)H-Glo™ Detection System was purchased from Promega. White, non-binding surface, 384 well plates were supplied by Corning (#3574).
Method: Inhibition of ALDH1A3 was assessed using the NAD(P)H-Glo™ Detection System (Cat. No. G9062) from Promega. This assay detects the production of NADH from NAD by ALDH1A3 via the coupled enzymatic conversion of a proluciferin reductase substrate to generate a luminescent signal. Inhibition of ALDH1A3 by small molecule inhibitors will result in reduction or abrogation of luminescence signal increase above background. Inhibition of ALDH1A1, ALDH1A2 and ALDH2 (selectivity assays) were assessed using the same assay.
Compounds were dosed into Corning 384 well assay plates using an Echo acoustic dispenser to give 10 point curves in a 3-fold dilution series. Compounds were dispensed from a 20 mM DMSO stock and initially screened at a top concentration of 20 μM (ALDH1A3) or 250 μM (ALDH1A1, ALDH1A2 & ALDH2). […]

As usually defined, the IC50 is the concentration that inhibits the measured activity by half. A higher IC50 goes with a need for much substance. In the case of `O=C1CCc2cc(NC(=O)c3ncccc3-c3cccc(F)c3)ccc2N1` [ALDHI-1020, 3-(3-fluorophenyl)-N-(2-oxo-3,4-dihydro-1H-quinolin-6-yl)pyridine-2-carboxamide], the IC50 at ALDH1A3 [1] and against ALDH1A3 [2] was 1 to 10 µM each time.
